Results from patent US9079876B2, “Imidazole derivatives and preparation method and use thereof” (Beijing Orbiepharm Co., Ltd., priority 2010, dated 2015).

Tested on: rat paw swelling induced by carrageenan
Test: Rat paw swelling induced by carrageenan (inflammation model)
Assay type: in vivo, Wistar rats
Protocol: In vivo test: observation of the effect of compound 1 on rat paw swelling induced by carrageenan (inflammation model evaluation)
50 rats were randomized into 5 groups, with 10 animals in each group.
The total volume prepared for each dose group was determined based on the actual weight of the animals. A corresponding volume of purified water was taken, and was added with a sample of the test compounds or of the positive control, to allow homogenous dispersion. Sodium carboxymethyl cellulose was subsequently added, to make a homogenous suspension without obvious agglomerates.
Methods: 50 Wistar rats ([…], 167-199 g) were used in the study, with 25 males and 25 females. They were randomized into 5 groups, i.e. model group, positive control group, compound 1: low, middle and high dose groups. […] 1 hour after intragastric administration, 0.1 ml 1% carrageenan was intradermally injected in the right hind plantar paw to induce inflammation. After induction of inflammation, paw plantar volume and paw thickness were measured every another hour, consecutively for six times. Paw swelling rate (%) and inhibition rate (%) were calculated.
Assay methods: volume of the rat right paw was determined using UGO Basile plethysmograph, and the liquid level was kept constant for in the same animal in each measurement; thickness of the right hind paw were measured at the depiction line in the central paw with a digital vernier caliper.
The group mean and standard deviation of paw swelling rate in each group of animals were calculated, and then the following statistical analysis was performed. The test level was 0.05, and both statistical significance and biological significance were considered in the result analysis.
Levene's Test was used for homogeneity of variance test. Single-factor analysis of variance (ANOVA) was used for statistical analysis, if no statistical significance (P>0.05) was found. Dunnett's test (parametric method) analysis was used for multiple comparison analysis, if ANOVA found statistical significance (P≦0.05).
If there was heterogeneity of variance (P≦0.05), then the Kruskal-Wallis test was used. If the test result of Kruskal-Wallis test was statistically significant (P<0.05), then Dunnett's test (non-parametric method) was used for multiple comparison analysis.

[1] = 7 mg/kg intragastric, 1 h after inflammation
[2] = 7 mg/kg intragastric, 2 h after inflammation
[3] = 7 mg/kg intragastric, 3 h after inflammation
[4] = 7 mg/kg intragastric, 4 h after inflammation
[5] = 7 mg/kg intragastric, 5 h after inflammation
[6] = 7 mg/kg intragastric, 6 h after inflammation
[7] = 10 mg/kg intragastric, 1 h after inflammation
[8] = 10 mg/kg intragastric, 2 h after inflammation
[9] = 10 mg/kg intragastric, 3 h after inflammation
[10] = 10 mg/kg intragastric, 4 h after inflammation
[11] = 10 mg/kg intragastric, 5 h after inflammation
[12] = 10 mg/kg intragastric, 6 h after inflammation
[13] = 14 mg/kg intragastric, 1 h after inflammation
[14] = 14 mg/kg intragastric, 2 h after inflammation
[15] = 14 mg/kg intragastric, 3 h after inflammation
[16] = 14 mg/kg intragastric, 4 h after inflammation
[17] = 14 mg/kg intragastric, 5 h after inflammation
[18] = 14 mg/kg intragastric, 6 h after inflammation

`CS(=O)(=O)c1ccc(-n2cnc(Cl)c2-c2ccccc2)nc1` [Compound 1, 2-(4-chloro-5-phenyl-1H-imidazol-1-yl)-5-(methylsulfonyl)pyridine] was tested, and the “inhibition rate of plantar paw thickness swelling” value [1] was 27.44%, the “inhibition rate of plantar paw volume swelling” value [1] was 0.00% and the “plantar paw thickness swelling rate” value [1] was 7.97 ± 3.84%. For the same molecule, the “plantar paw volume swelling rate” value [1] was 11.62 ± 4.73%, the “inhibition rate of plantar paw thickness swelling” value [2] was 63.92% and the “inhibition rate of plantar paw volume swelling” value [2] was 27.91%. For the same molecule, the “plantar paw thickness swelling rate” value [2] was 5.72 ± 4.27 %, the “plantar paw volume swelling rate” value [2] was 12.62 ± 4.15% and the “inhibition rate of plantar paw thickness swelling” value [3] was 76.74%. The “inhibition rate of plantar paw volume swelling” value [3] was 43.96%, the “plantar paw thickness swelling rate” value [3] was 4.01 ± 3.33 % and the “plantar paw volume swelling rate” value [3] was 11.87 ± 3.62 %. The “inhibition rate of plantar paw thickness swelling” value [4] was 77.45%, the “inhibition rate of plantar paw volume swelling” value [4] was 58.90% and the “plantar paw thickness swelling rate” value [4] was 4.29 ± 4.47 %. The “plantar paw volume swelling rate” value [4] was 11.14 ± 3.73 %, the “inhibition rate of plantar paw thickness swelling” value [5] was 85.81% and the “inhibition rate of plantar paw volume swelling” value [5] was 55.32%. For the same molecule, the “plantar paw thickness swelling rate” value [5] was 2.68 ± 3.82 %, the “plantar paw volume swelling rate” value [5] was 12.53 ± 5.03 % and the “inhibition rate of plantar paw thickness swelling” value [6] was 89.21%. The “inhibition rate of plantar paw volume swelling” value [6] was 57.59%, the “plantar paw thickness swelling rate” value [6] was 1.67 ± 4.28 % and the “plantar paw volume swelling rate” value [6] was 11.75 ± 4.71 %. For the same molecule, the “inhibition rate of plantar paw thickness swelling” value [7] was 0.00%, the “inhibition rate of plantar paw volume swelling” value [7] was 0.00% and the “plantar paw thickness swelling rate” value [7] was 12.91 ± 4.89%. For the same molecule, the “plantar paw volume swelling rate” value [7] was 12.48 ± 5.01%, the “inhibition rate of plantar paw thickness swelling” value [8] was 50.35% and the “inhibition rate of plantar paw volume swelling” value [8] was 6.86%. For the same molecule, the “plantar paw thickness swelling rate” value [8] was 7.87 ± 3.91 %, the “plantar paw volume swelling rate” value [8] was 16.30 ± 5.55% and the “inhibition rate of plantar paw thickness swelling” value [9] was 60.54%. For the same molecule, the “inhibition rate of plantar paw volume swelling” value [9] was 24.73%, the “plantar paw thickness swelling rate” value [9] was 6.80 ± 3.68 % and the “plantar paw volume swelling rate” value [9] was 15.95 ± 5.92%. For the same molecule, the “inhibition rate of plantar paw thickness swelling” value [10] was 69.63%, the “inhibition rate of plantar paw volume swelling” value [10] was 45.15% and the “plantar paw thickness swelling rate” value [10] was 5.78 ± 3.69 %. The “plantar paw volume swelling rate” value [10] was 14.87 ± 5.07 %, the “inhibition rate of plantar paw thickness swelling” value [11] was 71.80% and the “inhibition rate of plantar paw volume swelling” value [11] was 44.78%. The “plantar paw thickness swelling rate” value [11] was 5.32 ± 3.99 %, the “plantar paw volume swelling rate” value [11] was 15.48 ± 5.58 % and the “inhibition rate of plantar paw thickness swelling” value [12] was 66.63%. The “inhibition rate of plantar paw volume swelling” value [12] was 43.68%, the “plantar paw thickness swelling rate” value [12] was 5.16 ± 3.94 % and the “plantar paw volume swelling rate” value [12] was 15.61 ± 7.62 %. For the same molecule, the “inhibition rate of plantar paw thickness swelling” value [13] was 33.98%, the “inhibition rate of plantar paw volume swelling” value [13] was 0.77% and the “plantar paw thickness swelling rate” value [13] was 7.25 ± 4.10%. The “plantar paw volume swelling rate” value [13] was 10.82 ± 4.28%, the “inhibition rate of plantar paw thickness swelling” value [14] was 67.67% and the “inhibition rate of plantar paw volume swelling” value [14] was 30.59%. The “plantar paw thickness swelling rate” value [14] was 5.12 ± 3.74 %, the “plantar paw volume swelling rate” value [14] was 12.15 ± 5.20% and the “inhibition rate of plantar paw thickness swelling” value [15] was 77.77%. For the same molecule, the “inhibition rate of plantar paw volume swelling” value [15] was 42.44%, the “plantar paw thickness swelling rate” value [15] was 3.83 ± 2.59 % and the “plantar paw volume swelling rate” value [15] was 12.20 ± 5.19 %. The “inhibition rate of plantar paw thickness swelling” value [16] was 79.53%, the “inhibition rate of plantar paw volume swelling” value [16] was 48.46% and the “plantar paw thickness swelling rate” value [16] was 3.90 ± 3.54 %. For the same molecule, the “plantar paw volume swelling rate” value [16] was 13.97 ± 6.25 %, the “inhibition rate of plantar paw thickness swelling” value [17] was 86.47% and the “inhibition rate of plantar paw volume swelling” value [17] was 53.52%. The “plantar paw thickness swelling rate” value [17] was 2.55 ± 2.95 %, the “plantar paw volume swelling rate” value [17] was 13.03 ± 4.88 % and the “inhibition rate of plantar paw thickness swelling” value [18] was 84.04%. For the same molecule, the “inhibition rate of plantar paw volume swelling” value [18] was 59.93%, the “plantar paw thickness swelling rate” value [18] was 2.47 ± 2.70 % and the “plantar paw volume swelling rate” value [18] was 11.10 ± 4.42 %. The “inhibition of the paw swelling rate” value (low, middle and high dose groups (7, 10, 14 mg/kg), 4 hours after inflammation) was “above 30%”.
